Assays:
[1] = The drug is tested on Bifidobacterium longum subsp. Infantis strain: CCUG52486 for biotransformation. The drug concentrations were measured before and after a 12-h incubation by liquid-chromatography-coupled mass spectrometry (LC–MS); conditions: 2 µM
[2] = The drug is tested on Collinsella intestinalis strain: DSM13280 for biotransformation. The drug concentrations were measured before and after a 12-h incubation by liquid-chromatography-coupled mass spectrometry (LC–MS); conditions: 2 µM
[3] = The drug is tested on Bacteroides caccae strain: ATCC43185 for biotransformation. The drug concentrations were measured before and after a 12-h incubation by liquid-chromatography-coupled mass spectrometry (LC–MS); conditions: 2 µM
[4] = The drug is tested on Bacteroides dorei strain: DSM17855 for biotransformation. The drug concentrations were measured before and after a 12-h incubation by liquid-chromatography-coupled mass spectrometry (LC–MS); conditions: phocaeicola dorei, 2 µM
[5] = The drug is tested on Bacteroides fragilis strain: HMW610 for biotransformation. The drug concentrations were measured before and after a 12-h incubation by liquid-chromatography-coupled mass spectrometry (LC–MS); conditions: 2 µM
[6] = The drug is tested on Bacteroides fragilis strain: HMW615 for biotransformation. The drug concentrations were measured before and after a 12-h incubation by liquid-chromatography-coupled mass spectrometry (LC–MS); conditions: 2 µM
[7] = The drug is tested on Bacteroides ovatus strain: ATCC8483 for biotransformation. The drug concentrations were measured before and after a 12-h incubation by liquid-chromatography-coupled mass spectrometry (LC–MS); conditions: 2 µM
[8] = The drug is tested on Bacteroides uniformis strain: ATCC8492 for biotransformation. The drug concentrations were measured before and after a 12-h incubation by liquid-chromatography-coupled mass spectrometry (LC–MS); conditions: 2 µM
[9] = The drug is tested on Bacteroides xylanisolvens strain: DSM18836 for biotransformation. The drug concentrations were measured before and after a 12-h incubation by liquid-chromatography-coupled mass spectrometry (LC–MS); conditions: 2 µM
[10] = The drug is tested on Anaerotruncus colihominis strain: DSM17241 for biotransformation. The drug concentrations were measured before and after a 12-h incubation by liquid-chromatography-coupled mass spectrometry (LC–MS); conditions: 2 µM
[11] = The drug is tested on Clostridium sporogenes strain: ATCC15579 for biotransformation. The drug concentrations were measured before and after a 12-h incubation by liquid-chromatography-coupled mass spectrometry (LC–MS); conditions: 2 µM
[12] = The drug is tested on Coprococcus comes strain: ATCC27758 for biotransformation. The drug concentrations were measured before and after a 12-h incubation by liquid-chromatography-coupled mass spectrometry (LC–MS); type: ADME; parameters: dose 2 uM, timepoint 0 vs 12 hours; conditions: 2 µM
[13] = The drug is tested on Eubacterium hallii strain: DSM3353 for biotransformation. The drug concentrations were measured before and after a 12-h incubation by liquid-chromatography-coupled mass spectrometry (LC–MS); conditions: anaerobutyricum hallii, 2 µM
[14] = The drug is tested on Ruminococcus torques strain: ATCC27756 for biotransformation. The drug concentrations were measured before and after a 12-h incubation by liquid-chromatography-coupled mass spectrometry (LC–MS); type: ADME; parameters: dose 2 uM, timepoint 0 vs 12 hours; conditions: 2 µM
[15] = The drug is tested on Providencia rettgeri strain: DSM1131 for biotransformation. The drug concentrations were measured before and after a 12-h incubation by liquid-chromatography-coupled mass spectrometry (LC–MS); type: ADME; parameters: dose 2 uM, timepoint 0 vs 12 hours; conditions: 2 µM
[16] = bacteroides fragilis, 12 h, 2 µM
Description: The drug is tested on Bacteroides fragilis strain: NCTC 9343 for biotransformation. The drug concentrations were measured before and after a 12-h incubation by liquid-chromatography-coupled mass spectrometry (LC–MS)

[17] = bacteroides thetaiotaomicron, 12 h, 2 µM
Description: The drug is tested on Bacteroides thetaiotaomicron strain: 3731 for biotransformation. The drug concentrations were measured before and after a 12-h incubation by liquid-chromatography-coupled mass spectrometry (LC–MS)

[18] = segatella copri, 12 h, 2 µM
Description: The drug is tested on Prevotella copri strain: DSM18205 for biotransformation. The drug concentrations were measured before and after a 12-h incubation by liquid-chromatography-coupled mass spectrometry (LC–MS)

[19] = The drug is tested on Blautia luti strain: DSM14534 for biotransformation. The drug concentrations were measured before and after a 12-h incubation by liquid-chromatography-coupled mass spectrometry (LC–MS); type: ADME; parameters: dose 2 uM, timepoint 0 vs 12 hours; conditions: 2 µM
[20] = roseburia intestinalis, 12 h, 2 µM
Description: The drug is tested on Roseburia intestinalis strain: L1-82 for biotransformation. The drug concentrations were measured before and after a 12-h incubation by liquid-chromatography-coupled mass spectrometry (LC–MS)

| Compound | Bacterial Biotransformation [1] | Bacterial Biotransformation [2] | Bacterial Biotransformation [3] | Bacterial Biotransformation [4] | Bacterial Biotransformation [5] | Bacterial Biotransformation [6] | Bacterial Biotransformation [7] | Bacterial Biotransformation [8] | Bacterial Biotransformation [9] | Bacterial Biotransformation [10] | Bacterial Biotransformation [11] | Bacterial Biotransformation [12] | Bacterial Biotransformation [13] | Bacterial Biotransformation [14] | Bacterial Biotransformation [15] | Bacterial Biotransformation [16] | Bacterial Biotransformation [17] | Bacterial Biotransformation [18] | Bacterial Biotransformation [19] | Bacterial Biotransformation [20] |
| --- | --- | --- | --- | --- | --- | --- | --- | --- | --- | --- | --- | --- | --- | --- | --- | --- | --- | --- | --- | --- |
| CCCCC(=O)N(Cc1ccc(-c2ccccc2-c2nnn[nH]2)cc1)[C@H](C(=O)O)C(C)C | Compound NOT metabolized | Compound NOT metabolized | Compound NOT metabolized | Compound NOT metabolized | Compound metabolized | Compound metabolized | Compound NOT metabolized | Compound metabolized | Compound metabolized | Compound NOT metabolized | Compound NOT metabolized | Compound NOT metabolized | Compound NOT metabolized | Compound NOT metabolized | Compound NOT metabolized | Compound NOT metabolized | Compound metabolized | Compound NOT metabolized | – | – |
| COc1ccc(/C=C/C(=O)Nc2ccccc2C(=O)O)cc1OC | Compound NOT metabolized | Compound NOT metabolized | – | Compound NOT metabolized | Compound metabolized | Compound NOT metabolized | Compound metabolized | Compound NOT metabolized | Compound NOT metabolized | Compound NOT metabolized | Compound NOT metabolized | Compound NOT metabolized | Compound NOT metabolized | Compound NOT metabolized | Compound NOT metabolized | – | Compound NOT metabolized | Compound metabolized | Compound NOT metabolized | Compound NOT metabolized |
| Cc1cc(C)cc(OCC2CNC(=O)O2)c1 (stereo not given) [METAXALONE] | Compound NOT metabolized | Compound NOT metabolized | Compound NOT metabolized | Compound metabolized | Compound metabolized | Compound metabolized | Compound metabolized | Compound metabolized | Compound metabolized | Compound NOT metabolized | Compound NOT metabolized | Compound NOT metabolized | Compound NOT metabolized | – | – | Compound metabolized | Compound NOT metabolized | – | Compound NOT metabolized | Compound NOT metabolized |
| COc1c2occc2cc2ccc(=O)oc12 [METHOXSALEN] | – | – | Compound metabolized | Compound metabolized | Compound metabolized | Compound metabolized | – | Compound metabolized | Compound metabolized | Compound NOT metabolized | Compound metabolized | Compound metabolized | Compound metabolized | Compound NOT metabolized | Compound NOT metabolized | Compound metabolized | – | Compound NOT metabolized | – | Compound metabolized |
| CC(C)(C)NCC(O)COc1cccc2c1CC(O)C(O)C2 (stereo not given) [NADOLOL] | Compound NOT metabolized | Compound NOT metabolized | Compound NOT metabolized | – | Compound NOT metabolized | Compound NOT metabolized | Compound NOT metabolized | Compound NOT metabolized | Compound NOT metabolized | Compound NOT metabolized | Compound NOT metabolized | Compound NOT metabolized | Compound NOT metabolized | Compound NOT metabolized | Compound NOT metabolized | – | – | Compound NOT metabolized | Compound NOT metabolized | Compound NOT metabolized |
| CC(C)(C)NC[C@H](O)COc1ccccc1C1CCCC1.CC(C)(C)NC[C@H](O)COc1ccccc1C1CCCC1.O=S(=O)(O)O [PENBUTOLOL SULFATE] | Compound NOT metabolized | Compound NOT metabolized | Compound NOT metabolized | – | Compound NOT metabolized | Compound NOT metabolized | Compound NOT metabolized | Compound metabolized | Compound NOT metabolized | Compound NOT metabolized | Compound NOT metabolized | Compound NOT metabolized | Compound NOT metabolized | Compound NOT metabolized | – | Compound NOT metabolized | Compound NOT metabolized | – | Compound NOT metabolized | Compound NOT metabolized |
| CCN(CC)CCNC(=O)c1cc(S(C)(=O)=O)ccc1OC [TIAPRIDE] | Compound NOT metabolized | Compound NOT metabolized | Compound NOT metabolized | Compound NOT metabolized | Compound NOT metabolized | Compound NOT metabolized | Compound NOT metabolized | Compound NOT metabolized | – | Compound NOT metabolized | Compound NOT metabolized | Compound NOT metabolized | Compound NOT metabolized | Compound NOT metabolized | Compound NOT metabolized | Compound NOT metabolized | Compound NOT metabolized | – | Compound NOT metabolized | Compound NOT metabolized |

From ChEMBL document CHEMBL5303573, “Mapping human microbiome drug metabolism by gut bacteria and their genes” (Nature, 2019)
